For one assay, the system named is Venturia inaequalis. As to the kind of experiment: In vivo preventive test on Venturia test (apples) (Example G2). To be noted: 10 days after inoculation. The source says:
(§1) A synergistic effect of fungicides is always present when the fungicidal activity of the active compound combinations exceeds the total of the activities of the active compounds when applied individually. The expected activity for a given combination of two active compounds can be calculated as follows (cf. Colby, S. R., “Calculating Synergistic and Antagonistic Responses of Herbicide Combinations,” Weeds 1967, 15, 20-22):
(§2) If • X is the efficacy when active compound A is applied at an application rate of m ppm (or g/ha), • Y is the efficacy when active compound B is applied at an application rate of n ppm (or g/ha), • Z is the efficacy when active compound […] ppm (or g/ha), • E1 is the efficacy when the active compounds A and B are applied at application rates of m and n ppm (or g/ha), respectively, and • E2 is the efficacy when the active compounds A, B and C are applied at application rates of m, n and r ppm (or g/ha), respectively, and then
(§3) The degree of efficacy, expressed in % is denoted. 0% means an efficacy which corresponds to that of the control while an efficacy of 100% means that no disease is observed.
(§4) If the actual fungicidal activity exceeds the calculated value, then the activity of the combination is superadditive, i.e., a synergistic effect exists. In this case, the efficacy which was actually observed must be greater than the value for the expected efficacy (E) calculated from the abovementioned formula.
(§5) Solvent: 24.5 parts by weight of acetone • 24.5 parts by weight of dimethyl sulfoxide
(§6) Emulsifier: 1 part by weight of alkylaryl polyglycol ether
(§7) To produce a suitable preparation of active compound, 1 part by weight of active compound is mixed with the stated amounts of solvent and emulsifier, and the concentrate is diluted with water to the desired concentration.
To test for preventive activity, young plants are sprayed with the preparation of active compound at the stated rate of application. After the spray coating has dried on, the plants are inoculated with an aqueous conidia suspension of the causal agent of apple scab (Venturia inaequalis) and then remain for 1 day in an incubation cabinet at approximately 20° C. and a relative atmospheric humidity of 100%.
The plants are then placed in a greenhouse at approximately 21° C. and a relative atmospheric humidity of approximately 90%.
The test is evaluated 10 days after the inoculation. 0% means an efficacy which corresponds to that of the untreated control, while an efficacy of 100% means that no disease is observed.

The next assay deals with Alternaria solani. As to the kind of experiment: In vivo preventive test on Alternaria test (tomatoes) (Example G1). To be noted: 3 days after inoculation.
Description: as §1, §2, §3, §4, §5, §6, §7
To test for preventive activity, young plants are sprayed with the preparation of active compound at the stated rate of application. After the spray coating has dried on, the plants are inoculated with an aqueous spore suspension of Alternaria solani. The plants are then placed in an incubation cabinet at approximately 20° C. and a relative atmospheric humidity of 100%.
The test is evaluated 3 days after the inoculation. 0% means an efficacy which corresponds to that of the untreated control while an efficacy of 100% means that no disease is observed.

The next assay has as its system field peas. As to the kind of experiment: Field trials in field peas Western Canada 2018, yield (Example I). It is filed as in vivo. As to the method:
Field trials in field peas were conducted in Western Canada in spring/summer 2018.
(§8) Fertilization and herbicide applications were carried out according to the local agricultural practice.
(§9) Fluopyram was added to Delaro in a final concentration of 50, 75 and 90 g/ha.
The following products as shown in Table 20 were sprayed using a Backpack hand boom sprayer with flat fan spray nozzles applying 93.5 L/ha spray solution at crop BBCH growth stage 63.

For the next assay, the system named is lentils. As to the kind of experiment: Field trials in lentils Western Canada 2018, yield (Example H). It is filed as in vivo. Here is the method: Field trials in lentils were conducted in Western Canada in spring/summer 2018.
as §8, §9
The following products as shown in Table 18 were sprayed using a Backpack hand boom sprayer with air induction flat fan spray nozzles applying 93.5 L/Ha spray solution at crop BBCH—growth stage 62-63.

SMILES strings stand for the structures.

In the case of `O=C(NCCc1ncc(C(F)(F)F)cc1Cl)c1ccccc1C(F)(F)F` [Fluopyram, N-[2-[3-chloro-5-(trifluoromethyl)-2-pyridinyl]ethyl]-2-(trifluoromethyl)benzamide], the Efficacy % was found to be 0% in the assay with Venturia inaequalis (fluopyram 0.75 ppm); 0% in the assay with Venturia inaequalis (fluopyram 1.5 ppm); 5% with Venturia inaequalis (fluopyram 3 ppm); 5% in the assay with Alternaria solani (fluopyram 0.75 ppm); 8% in the assay with Alternaria solani (fluopyram 1.5 ppm); 10% with Alternaria solani (fluopyram 3 ppm). Also, the “Yield [% of Priaxor treatment-Priaxor is 100%]” value in the assay on field peas (BBCH 63, Fluopyram 50 g/ha) is reported as 98.9 % of Priaxor treatment; in the assay on field peas (BBCH 63, Fluopyram 75 g/ha), 99.7 % of Priaxor treatment; in the assay with lentils (BBCH 62-63, Fluopyram 50 g/ha) it was 93.8 % of Priaxor treatment; in the assay on lentils (BBCH 62-63, Fluopyram 75 g/ha) it was 96.3 % of Priaxor treatment.
For the compound `OC(Cc1ccccc1Cl)(Cn1nc[nH]c1=S)C1(Cl)CC1` (stereo not shown) [Prothioconazole, 2-[2-(1-chlorocyclopropyl)-3-(2-chlorophenyl)-2-hydroxypropyl]-1,2-dihydro-3H-1,2,4-triazole-3-thione], the Efficacy % with Venturia inaequalis (prothioconazole 1.05 ppm) was 0%; with Venturia inaequalis (prothioconazole 2.1 ppm), 17%; with Venturia inaequalis (prothioconazole 4.2 ppm) it was 41%; in the assay on Alternaria solani (prothioconazole 1.05 ppm), 0%; in the assay on Alternaria solani (prothioconazole 2.1 ppm), 0%; with Alternaria solani (prothioconazole 4.2 ppm), 10%.
Turning to `CO/N=C(/C(=O)OC)c1ccccc1CO/N=C(\C)c1cccc(C(F)(F)F)c1` [Trifloxystrobin, methylalpha-(methoxyimino)-2-[[[[1-[3-(trifluoromethyl)phenyl]ethylidene]amino]oxy]methyl]-benzeneacetate], the Efficacy % in the assay on Venturia inaequalis (trifloxystrobin 0.9 ppm) is 40%; with Venturia inaequalis (trifloxystrobin 1.8 ppm), 65%; with Venturia inaequalis (trifloxystrobin 3.6 ppm) it was 89%; in the assay with Alternaria solani (trifloxystrobin 0.9 ppm) it was 23%; in the assay on Alternaria solani (trifloxystrobin 1.8 ppm) it was 31%; in the assay on Alternaria solani (trifloxystrobin 3.6 ppm) it was 41%.

For the origin of these results see patent publication US12439919B2, “Active compound combinations” (priority 2019, dated 2025).
